Reference: ChEMBL document CHEMBL4402569
The source made the active and inactive calls. The rule behind the calls is not given here.

Tests used:
[1] = AUC (0 to 8 hrs) in BALB/c mouse plasma at 10 mg/kg, ip; assay type: ADME, organism-based; set-up: time < 8 hr, dose 10 mg/kg, route intraperitoneal; conditions: in vivo
[2] = test system: H5N1 subtype; test: Antiviral activity against pseudotyped Influenza A virus H5N1 (Goose/Qinghai/59/05) infected in human A549 cells assessed as inhibition of viral replication at incubated for 48 hrs by luciferase reporter gene assay; assay type: functional, organism-based; conditions: Goose/Qinghai/59/05, A549, 48 h
[3] = Stability in mouse liver microsomes assessed as compound remaining incubated for 60 mins in presence of NADPH; assay type: ADME, Microsome; conditions: read-out: Stability
[4] = test system: Influenza A virus; test: Antiviral activity against Influenza A virus (A/Puerto Rico/8/1934(H1N1)) infected in MDCK cells incubated for 1 hr and measured after 36 hrs in presence of 156 nM Oseltamivir carboxylate by PR8-NS1 Gaussia luciferase reporter gene assay; assay type: functional, organism-based
[5] = test system: H5N1 subtype; test: Antiviral activity against pseudotyped Influenza A virus H5N1 (Goose/Qinghai/59/05) infected in human A549 cells assessed as inhibition of viral replication at 12.5 uM incubated for 48 hrs by luciferase reporter gene assay relative to control; assay type: functional; conditions: Goose/Qinghai/59/05, A549, 48 h
[6] = test system: Influenza A virus; test: Antiviral activity against Influenza A virus (A/Puerto Rico/8/1934(H1N1)) infected in MDCK cells incubated for 1 hr and measured after 36 hrs by PR8-PB2 Gaussia luciferase reporter gene assay; assay type: functional, organism-based
[7] = Half life in BALB/c mouse plasma at 5 mg/kg, iv; assay type: ADME, organism-based
[8] = AUC (0 to 8 hrs) in BALB/c mouse plasma at 5 mg/kg, iv; assay type: ADME, organism-based; set-up: time < 8 hr, dose 5 mg/kg, route intravenous; conditions: in vivo
[9] = Bioavailability in BALB/c mouse plasma at 5 mg/kg, iv; assay type: ADME, organism-based; conditions: in vivo
[10] = AUC (0 to 8 hrs) in BALB/c mouse liver at 50 mg/kg, po; assay type: ADME, organism-based; set-up: time < 8 hr, dose 50 mg/kg, route oral; conditions: in vivo
[11] = Cmax in BALB/c mouse plasma at 10 mg/kg, ip; assay type: ADME, organism-based; set-up: dose 10 mg/kg, route intraperitoneal
[12] = Cmax in BALB/c mouse plasma at 5 mg/kg, iv; assay type: ADME, organism-based; set-up: dose 5 mg/kg, route intravenous
[13] = Selectivity index, ratio of CC50 for MDCK cells to EC50 for antiviral activity against Influenza A virus (A/Puerto Rico/8/1934(H1N1)) infected in MDCK cells by PR8-PB2 Gaussia luciferase reporter gene assay; assay type: toxicity, cell-based; conditions: dog, read-out: Ratio CC50/EC50
[14] = biological target: CYP3A4 (Homo sapiens, UniProt P08684); test: Inhibition of human CYP3A4; assay type: ADME
[15] = Cmax in BALB/c mouse liver at 10 mg/kg, ip; assay type: ADME, organism-based; set-up: dose 10 mg/kg, route intraperitoneal
[16] = Cmax in BALB/c mouse liver at 50 mg/kg, po; assay type: ADME, organism-based; set-up: dose 50 mg/kg, route oral
[17] = biological target: CYP2C9 (Homo sapiens, UniProt P11712); test: Inhibition of human CYP2C9; assay type: ADME
[18] = Ratio of Cmax in BALB/c mouse liver at 50 mg/kg, po to EC50 for antiviral activity against Influenza A virus (A/Puerto Rico/8/1934(H1N1)) infected in MDCK cells by PR8-PB2 Gaussia luciferase reporter gene assay; assay type: ADME, organism-based; conditions: in vivo
[19] = Cmax in BALB/c mouse plasma at 50 mg/kg, po; assay type: ADME, organism-based; set-up: dose 50 mg/kg, route oral
[20] = Tmax in BALB/c mouse plasma at 5 mg/kg, iv; assay type: ADME, organism-based
[21] = AUC (0 to 8 hrs) in BALB/c mouse plasma at 50 mg/kg, po; assay type: ADME, organism-based; set-up: time < 8 hr, dose 50 mg/kg, route oral; conditions: in vivo
[22] = test system: H5N1 subtype; test: Antiviral activity against Influenza A virus (A/Viet Nam/1203/2004(H5N1)) infected in human A549 cells assessed as decrease in viral titer at 20 uM by standard plaque assay; assay type: functional
[23] = AUC (0 to 8 hrs) in BALB/c mouse liver at 10 mg/kg, ip; assay type: ADME, organism-based; set-up: dose 10 mg/kg, time < 8 hr, route intraperitoneal; conditions: in vivo
[24] = test system: Influenza A virus; test: Antiviral activity against Influenza A virus (A/Puerto Rico/8/1934(H1N1)) infected in MDCK cells incubated for 1 hr and measured after 36 hrs by PR8-NS1 Gaussia luciferase reporter gene assay; assay type: functional, organism-based
[25] = test system: H5N1 subtype; test: Antiviral activity against Influenza A virus (A/Viet Nam/1203/2004(H5N1)) infected in human A549 cells assessed as decrease in viral titer at 1 uM by standard plaque assay; assay type: functional, organism-based
[26] = Stability in human liver microsomes assessed as compound remaining incubated for 60 mins in presence of NADPH; assay type: ADME, Microsome; conditions: read-out: Stability
[27] = test system: Influenza A virus; test: Antiviral activity against Influenza A virus (A/Puerto Rico/8/1934(H1N1)) infected in human A549 cells assessed as decrease in viral titer at 1 uM by standard plaque assay; assay type: functional, organism-based

Sequence of CYP3A4 (P08684 whole entry): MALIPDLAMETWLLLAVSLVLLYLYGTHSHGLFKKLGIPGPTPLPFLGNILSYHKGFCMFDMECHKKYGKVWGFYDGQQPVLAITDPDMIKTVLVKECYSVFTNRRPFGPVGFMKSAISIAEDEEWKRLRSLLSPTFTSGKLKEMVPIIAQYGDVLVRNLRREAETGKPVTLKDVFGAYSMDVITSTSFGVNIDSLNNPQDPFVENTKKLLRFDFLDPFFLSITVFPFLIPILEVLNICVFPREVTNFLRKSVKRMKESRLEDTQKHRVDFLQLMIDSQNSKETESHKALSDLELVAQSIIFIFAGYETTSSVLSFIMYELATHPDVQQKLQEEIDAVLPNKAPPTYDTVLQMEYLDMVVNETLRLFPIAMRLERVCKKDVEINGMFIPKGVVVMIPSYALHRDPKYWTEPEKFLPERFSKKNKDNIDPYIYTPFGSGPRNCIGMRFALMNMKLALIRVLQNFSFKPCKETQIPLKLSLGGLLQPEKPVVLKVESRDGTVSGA
Sequence of CYP2C9 (P11712 whole entry): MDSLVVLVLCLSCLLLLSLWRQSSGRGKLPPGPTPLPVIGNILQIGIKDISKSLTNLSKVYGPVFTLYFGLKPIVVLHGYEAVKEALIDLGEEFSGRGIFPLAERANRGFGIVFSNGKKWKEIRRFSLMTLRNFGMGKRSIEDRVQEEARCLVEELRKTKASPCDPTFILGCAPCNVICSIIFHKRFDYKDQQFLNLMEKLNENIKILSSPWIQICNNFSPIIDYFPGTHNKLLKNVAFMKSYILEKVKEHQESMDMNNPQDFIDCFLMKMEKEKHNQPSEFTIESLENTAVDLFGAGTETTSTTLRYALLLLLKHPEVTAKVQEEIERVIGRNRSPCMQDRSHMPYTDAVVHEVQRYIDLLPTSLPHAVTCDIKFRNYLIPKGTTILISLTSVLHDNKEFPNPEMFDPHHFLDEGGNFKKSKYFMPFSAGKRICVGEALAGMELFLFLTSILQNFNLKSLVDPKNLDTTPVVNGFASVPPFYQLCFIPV

## CC(C)(C)N1CCC(NC(=O)c2ccc(C(F)(F)F)cc2Cl)CC1
[1]
  AUC: 3282 ng·h/g
[2]
  EC50: 240 nM
[3]
  remaining at 1 h: 94%
[4]
  EC30: 35 nM
  EC40: 42 nM
  EC50: 49 nM
  EC60: 57 nM
  EC70: 68 nM
  EC80: 83 nM
  EC90: 114 nM
[5]
  inhibition at 12.5 µM: 99%
[6]
  EC50: 72 nM
[7]
  half-life: 8.84 h
[8]
  AUC: 3400 ng·h/g
[9]
  F: 145%
[10]
  AUC: 292000 ng·h/g
[11]
  Cmax: 1140 ng/g
[12]
  Cmax: 846 ng/g
[13]
  selectivity ratio: > 100
[14]
  IC50: > 100000 nM
[15]
  Cmax: 24900 ng/g
[16]
  Cmax: 70400 ng/g
[17]
  IC50: > 100000 nM
[18]
  Ratio: 100
[19]
  Cmax: 7640 ng/g
[20]
  Tmax: 1.8 min
[21]
  AUC: 23705 ng·h/g
[22]
  inhibition at 20 µM: 100%
[23]
  AUC: 66400 ng·h/g
[24]
  EC30: 134 nM
  EC40: 160 nM
  EC50: 187 nM
  EC60: 219 nM
  EC70: 260 nM
  EC80: 321 nM
  EC90: 439 nM
[25]
  inhibition: Active
[26]
  remaining at 1 h: 97%
[27]
  inhibition: Active
